Measurements taken from patent US20190070165A1, “N-HYDROXYISOQUINOLINEDIONE INHIBITORS OF HBV REPLICATION” (Saint Louis University, priority 2016, published 2019).
Where two headings read alike, the source gives them in different places.

Legend:
HBV RNaseH [1] = biological target: T1, HBV RNaseH (Hepatitis B virus genotype D subtype ayw, UniProt P03156); settings: for Inhibition of HBV RNaseH, Oligonucleotide directed cleavage assay: Table 3, compounds at 100, 60 and 20 μM, compounds 1-91 and 138-140 previously reported (Cai et al., 2014); for HBV RNaseH: Table 1, qualitative inhibition in biochemical assay
T1 sequence (P03156 671-832): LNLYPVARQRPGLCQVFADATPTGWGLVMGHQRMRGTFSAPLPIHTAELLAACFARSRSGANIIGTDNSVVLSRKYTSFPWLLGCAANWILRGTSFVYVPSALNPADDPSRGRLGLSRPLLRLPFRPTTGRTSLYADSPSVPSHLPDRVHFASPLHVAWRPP
Description: RNaseH expression and purification. […] The enriched extracts were dialyzed into 50 mM HEPES pH 7.3, 300 mM NaCl, 20% glycerol, and 5 mM DTT and stored in liquid nitrogen.
Oligonucleotide-directed RNA cleavage assay. […] This mixture was incubated with test compounds in 50 mM Tris pH 8.0, 190 mM NaCl, 5 mM MgCl2, 3.5 mM DTT, 0.05% NP40, 6% glycerol, and 1% DMSO at 42° C. for 90 minutes. Cleavage products were resolved by denaturing polyacrylamide gel electrophoresis, detected by autoradiography, and quantified using ImageJ. Non-specific background values were determined from the incorrect oligonucleotide negative control lane and subtracted from all experimental values. IC50 values were then calculated with GraphPad Prism using three-parameter log(inhibitor) vs. response non-linear curve fitting with the curve minimum set to zero to reflect background subtraction.
The HBV RNaseH inhibition activity of the 16 previously untested compounds was examined using an oligonucleotide-directed cleavage assay. Compounds were incubated with the HBV RNaseH, a ^32P-labeled RNA substrate plus a complementary DNA oligonucleotide and compounds at 100, 60, and 20 μM and the amount of the RNA cleavage products was measured following resolution on an acrylamide gel.
Briefly, a ^32P-labeled RNA was combined with a DNA oligonucleotide and the RNA:DNA substrate was incubated in the presence of the RNaseH and test compounds in 50 mM tris pH 8.0, 190 mM NaCl, 5 mM MgCl2, 3.5 mM DTT, 0.05% NP40, 6% glycerol, and 1% DMSO at 42° C. for 90 minutes. The products were resolved by gel electrophoresis and detected by audioradioagraphy.

HBV replication = HBV replication inhibition assay in HepDES19 cells (strand-preferential q-PCR); format: cell-based, Hepatitis B virus; settings: for HBV replication inhibition (qualitative): Table 3, qualitative screen at 20 μM; for EC50: Hepatitis B virus; for HBV replication inhibition / activity: HepDES19 cells
Description: HBV replication assay. […] Cells were seeded into 6-well plates and incubated in DMEM/F12, 10% fetal bovine serum (FBS), 1% penicillin/streptomycin (P/S) with 1 μg/mL tetracycline. Tetracycline was withdrawn after 24 hours. The test compound was applied to duplicate wells 48 hours later in medium containing a final DMSO concentration of 1%, and medium containing the compound was refreshed daily for the following two days. Cells were harvested and non-encapsidated nucleic acids were digested with micrococcal nuclease (New England Biolabs). HBV DNA was purified from capsids using QIAamp Cador Pathogen Mini Kit (Qiagen) with proteinase K incubation overnight at 37° C. TaqMan PCR was performed for 40 cycles at an annealing temperature of 60° C.
Thirty-nine HID, HPD, flutimide, and related POH compounds (Structures shown in FIG. 3) were screened for their ability to inhibit HBV replication in HepDES19 cells. […] Inhibition was calculated as the amount of plus-polarity DNA relative to the DMSO treated controls.
Briefly, HepDES19 were seeded in 12-well plates at 2×10^5 cells per well in the absence of tetracycline. Test compound was applied to cells 48 hours after removal of tetracycline. […] HBV DNA was purified from capsids using a QIAamp pathogen minikit with proteinase K digestion extended to overnight at 37° C. TaqMan PCR was performed for 40 cycles with an annealing temperature of 60° C.

HSV-1 = HSV-1 replication inhibition assay in Vero cells; format: cell-based, herpes simplex virus 1; settings: for log reduction at 5 µM: read-out: HSV-1 suppression (log10 at 5 μM), class symbol
Description: Thirty-seven compounds were counter-screened for efficacy against HSV-1 to evaluate specificity of the inhibitors and to help determine if the efficacy against HBV replication may be due to an unsuspected indirect effect on the cells. Vero cells infected with HSV-1 at an MOI of 0.1 were treated with 5 μM of compound for 24 hours. Inhibition was calculated as log 10 suppression of plaque forming units compared with DMSO vehicle control.
Vero cells were maintained DMEM supplemented with 3% newborn calf serum, 3% bovine growth serum, 2 mM L-glutamine, and P/S. Test compounds were applied to the cells in the presence of 0.05% DMSO. The herpes simplex virus 1 (HSV-1) strain used for screening was a de-identified clinical isolate from the Saint Louis University Hospital passaged once in culture.
Compounds and virus were diluted in phosphate buffered saline (PBS) containing 2% newborn calf serum and 2 mM L-glutamine so that the final concentration of compound was 5 μM. The cells were incubated at 37° C. for 1 hour with the virus containing inoculum, then the inoculum was removed and the wells were washed once in PBS. Compound diluted to 5 μM in supplemented DMEM was added and cells were incubated at 37° C. for an additional 23 hours. The plates were then microscopically inspected for cytopathic effect (CPE) or toxicity and then frozen at −80° C. Virus titers for wells with limited CPE compared to DMSO vehicle-treated controls were then determined by plaque assay on Vero cells. Each experiment was repeated at least once.

human RNaseH1 = biological target: T2, human RNaseH1 (Homo sapiens, UniProt O60930); assay: Oligonucleotide-directed RNA cleavage assay, human RNaseH1; format: biochemical; settings: for IC50: Table 1, quantitative values; for Human RNaseH1: Table 1, qualitative inhibition; for inhibition of huRNaseH1: compounds at 100, 60 and 20 μM
T2 construct: made in house; host or cells: E. coli
T2 sequence (O60930 1-286): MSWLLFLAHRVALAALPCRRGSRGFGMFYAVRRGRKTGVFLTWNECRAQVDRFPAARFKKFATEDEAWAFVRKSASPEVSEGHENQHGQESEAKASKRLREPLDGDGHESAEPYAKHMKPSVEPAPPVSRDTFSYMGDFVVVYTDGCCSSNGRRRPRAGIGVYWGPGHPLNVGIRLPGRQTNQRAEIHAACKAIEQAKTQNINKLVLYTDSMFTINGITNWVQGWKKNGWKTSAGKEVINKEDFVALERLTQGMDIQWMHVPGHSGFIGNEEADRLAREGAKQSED
Excerpt: RNaseH expression and purification.
Oligonucleotide-directed RNA cleavage assay.

HBV RNaseH [2] = biological target: T1, HBV RNaseH; assay: Molecular beacon RNaseH assay; settings: Table 3, 0 to 500 μM
Description: In this assay, a hairpin DNA oligonucleotide labeled with fluorescein on one end and a quencher on the other is held in a linear conformation by annealing to a complementary RNA; cleavage of the RNA causes the DNA to fold into a hairpin, suppressing fluorescence (FIG. 8A).
The substrate is a hairpin DNA oligonucleotide with a 5′ fluorescein reporter and a 3′ black hole quencher annealed to a complementary RNA oligonucleotide. The reaction was initiated by adding 5 mM Mg^++, and fluorescence was monitored at 37° C. with a Synergy 4 96-well plate reader. Inhibition was qualitatively determined as a dose-dependent reduction in the rate of substrate degradation.

[3] = Human alphaherpesvirus 1, 24 h, 5 μM, Vero cells
[4] = HepDES19, Table 2, qualitative suppression of + and − DNA strands, read-out: EC50 (class symbols)
[5] = HepDES19, read-out: HBV replication inhibition (EC50, μm)
[6] = Table 2, HepDES19 cells, read-out: EC50
[7] = Human alphaherpesvirus 1, Vero, 24 h

Compound	Inhibition of HBV RNaseH, Oligonucleotide directed cleavage assay (HBV RNaseH [1])	HBV replication inhibition (qualitative) (HBV replication)	log reduction at 5 µM (HSV-1; [3])	further results
Cc1cc(C2CCCCC2)n(O)c(=O)c1 [Compound 41, Ciclopirox, reference compound]	− (No inhibition detected at 100 μM)	− (No inhibition detected at 20 μM)		HSV-1 suppression (log10 at 5 μM) (HSV-1; 5 μM, 24 hours, Vero cells, MOI 0.1, plaque forming units vs DMSO): 5.0 log10
CCOC(=O)C1=CC2C=CC=CC2N(O)C1=O (centres unmarked) [Compound 42]	− (No inhibition detected at 100 μM)	− (No inhibition detected at 20 μM)	< 1	
O=C1C=CC2C=CC=CC2N1O (centres unmarked) [Compound 43]	− (No inhibition detected at 100 μM)	− (No inhibition detected at 20 μM)	< 1	
Cc1cc(C)n(O)c(=O)c1C#N [Compound 44]	− (No inhibition detected at 100 μM)	− (No inhibition detected at 20 μM)	< 1	
O=C1c2cccc3cccc(c23)C(=O)N1O [Compound 45]	− (No inhibition detected at 100 μM)	− (No inhibition detected at 20 μM)	< 1	
Cc1ccc(CC2C(=O)N(O)C(=O)c3ccccc32)cc1 (centres unmarked) [Compound 80]	− (No inhibition detected at 100 μM)	− (No inhibition detected at 20 μM)	< 1	EC50 (HBV replication; [4]): > 20 µM; IC50 (human RNaseH1): > 100 µM
CCCNC(=O)C1C(=O)N(O)C(=O)c2ccccc21 (centres unmarked) [Compound 82]	− (No inhibition detected at 100 μM)	− (No inhibition detected at 20 μM)	< 1	HBV RNaseH (HBV RNaseH [1]): +/−; EC50 (HBV replication; [4]): > 20 µM; Human RNaseH1 (human RNaseH1): +++ (detectable inhibition at 10 μM)
O=C(Nc1ccccc1)C1C(=O)N(O)C(=O)c2ccccc21 (centres unmarked) [Compound 84]	− (No inhibition detected at 100 μM)		< 1	Inhibition of HBV RNaseH, Molecular Beacon cleavage assay (HBV RNaseH [2]): − (No inhibition detected at 500 μM); HBV RNaseH (HBV RNaseH [1]): +/−; EC50 (HBV replication; [5]): 6.5 ± 4.5 µM; IC50 (human RNaseH1): 3.7 µM
O=C(NCc1ccccc1)C1C(=O)N(O)C(=O)c2ccccc21 (centres unmarked) [Compound 85]	− (No inhibition detected at 100 μM)			Inhibition of HBV RNaseH, Molecular Beacon cleavage assay (HBV RNaseH [2]): − (No inhibition detected at 500 μM); HBV RNaseH (HBV RNaseH [1]): +/−; EC50 (HBV replication; [5]): 6.5 ± 1.5 µM; EC50 (HBV replication; [6]): 6.5 µM; log reduction at 5 µM (HSV-1; [7]): < 1; IC50 (human RNaseH1): 3.9 µM
COc1ccc(CNC(=O)C2C(=O)N(O)C(=O)c3ccccc32)cc1 (centres unmarked) [Compound 90]	− (No inhibition detected at 100 μM)		< 1	Inhibition of HBV RNaseH, Molecular Beacon cleavage assay (HBV RNaseH [2]): − (No inhibition detected at 500 μM); EC50 (HBV replication; [5]): 19 ± 0.9 µM; EC50 (HBV replication; [6]): 18 µM; Human RNaseH1 (human RNaseH1): ++ (detectable inhibition at 20 μM)
O=C1c2ccc3ccccc3c2C(=O)N1O [Compound 128]	− (No inhibition detected at 100 μM)		< 1	
O=C(O)c1nc(Cl)c2ccccc2c1O [Compound 132]	− (No inhibition detected at 100 μM)	− (No inhibition detected at 20 μM)		
O=C1CCC(=O)N1O [Compound 139]	− (No inhibition detected at 100 μM)	− (No inhibition detected at 20 μM)		HBV replication inhibition / activity (HBV replication): inactive
CC1=C(C#N)C(=O)NC(=O)C1Cc1ccc(-c2ccccc2)o1 (centres unmarked) [Compound 140]	− (No inhibition detected at 100 μM)	− (No inhibition detected at 20 μM)	< 1	
CC1CC(=O)N(O)C(CC(C)CC(C)(C)C)C1 (centres unmarked) [Compound 191, Piroctone olamine, reference compound]	− (No inhibition detected at 100 μM)	− (No inhibition detected at 20 μM)		
Oc1nc2ccccc2nc1O [Compound 198, 2,3-dihydroxy-quinoxaline]	− (No inhibition detected at 100 μM)	− (No inhibition detected at 20 μM)	< 1	
NN1C(=O)Cc2ccccc2C1=O [Compound 204]	− (No inhibition detected at 100 μM)	− (No inhibition detected at 20 μM)	< 1	HBV replication inhibition / activity (HBV replication): inactive; inhibition of huRNaseH1 (human RNaseH1): detectably inhibited
Nc1cccc(O)n1 [Compound 206]	− (No inhibition detected at 100 μM)	− (No inhibition detected at 20 μM)	< 1	inhibition of huRNaseH1 (human RNaseH1): detectably inhibited
O=C1C(=O)N(O)C2CCCCC2N1O (centres unmarked) [Compound 217]	− (No inhibition detected at 100 μM)	− (No inhibition detected at 20 μM)		log reduction at 5 µM (HSV-1; [7]): < 1; inhibition of huRNaseH1 (human RNaseH1): detectably inhibited
O=C1Cn2c(cc3ccccc32)C(=O)N1O [Compound 236]	− (No inhibition detected at 100 μM)	− (No inhibition detected at 20 μM)	< 1	
O=C1Cn2c(cc3cc(Cl)ccc32)C(=O)N1O [Compound 237]	− (No inhibition detected at 100 μM)	− (No inhibition detected at 20 μM)	< 1	
COc1ccc2c(c1)cc1n2CC(=O)N(O)C1=O [Compound 238]	− (No inhibition detected at 100 μM)	− (No inhibition detected at 20 μM)	< 1	
O=C1Cn2c(cc3ccccc32)C(=O)N1 [Compound 239]	− (No inhibition detected at 100 μM)	− (No inhibition detected at 20 μM)	< 1	
O=C1Cn2c(cc3cc(O)ccc32)C(=O)N1O [Compound 240]	− (No inhibition detected at 100 μM)	− (No inhibition detected at 20 μM)	< 1	inhibition of huRNaseH1 (human RNaseH1): detectably inhibited
O=C1Cn2c(cc3cc(F)ccc32)C(=O)N1O [Compound 241]	− (No inhibition detected at 100 μM)	− (No inhibition detected at 20 μM)	< 1	
